Measured values published in patent US9957295B2, “Peptides inhibiting cold-inducible RNA binding protein activity” (The Feinstein Institute for Medical Research, priority 2013, dated 2018).
“Also recorded” adds a separate entry of the source.

Key:
[1] = test system: LPS-induced TNF-α production in differentiated THP-1 cells; assay: Peptide inhibition of LPS-induced TNF-α production in differentiated THP-1 cells (ELISA); type: cell-based, human
Experimental: Human monocytic THP-1 cells (American Type Culture Collection, Manassas, Va.), were seeded in suspension into T75 tissue culture flask at a density of 1.5×10^6 cells and cultured with RPMI-1640 medium supplemented with 10% heat-inactivated fetal bovine serum, 1% penicillin/streptomycin, 2 mM glutamine and additional 0.05 mM β-mercaptoethanol at 37° C. in a humidified incubator with 5% CO2.
Cells were plated at a density of 5×10^4 per well in 96-well tissue culture plate and incubated with phorbol 12-myristate 13-acetate (20 ng/ml) for 48 h to become differentiated macrophages-like cells before experiment. Cells were used between passages 5 and 12. Cells were pretreated with indicated concentrations of CIRP-derived peptides C22 (SEQ ID NO: 13) or C23 (SEQ ID NO: 12) for 1 h, and then incubated in the absence or presence rmCIRP or LPS (from E. coli O111:B4, Sigma St. Louis, Mo.) with Opti-MEM-medium for 6 h. The cell-free supernatants were assayed for TNF-α by ELISA.
Supernatants were measured for TNF-α levels using a commercially available enzyme-linked immunosorbent assay (ELISA) kits-human TNF-α set (BioSource International, Camarillo, Calif.) according to the manufacturer's instruction.
The CIRP-derived peptides were also found to modulate LPS-induced TNF-α release in differentiated THP-1 cells. […] The doses of C22 or C23 at 2 ng/ml, equivalent to 1.3 pmol/ml and LPS at 10 ng/ml, equivalent to 0.67 pmol/ml, peptides and LPS molar ratios at 2:1 were used to treat cells.

rhMD2 = biological target: T1, rhMD2 (Homo sapiens, UniProt Q9Y6Y9); assay: SPR binding to immobilized rhMD2; settings: oligopeptides passed over immobilized rhMD2
T1 construct: Glu17-Asn160); 10-His (C); purchased R&D Systems; host or cells: E. coli
T1 sequence (Q9Y6Y9 17-160): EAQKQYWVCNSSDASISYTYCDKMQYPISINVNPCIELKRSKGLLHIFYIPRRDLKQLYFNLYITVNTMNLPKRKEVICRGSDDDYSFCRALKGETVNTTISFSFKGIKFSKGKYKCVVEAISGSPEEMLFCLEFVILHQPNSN
Experimental: Analysis of protein-protein and peptide-protein interactions were conducted using the BIAcore T200 instrument (GE Healthcare). Binding reactions were performed in 1×PBS buffer containing 0.01% Tween-20 (pH 7.4). The CM5 dextran chip (flow cell-2) was first activated by injection with 89 μl of 0.1 M […] and 0.1 M N-hydroxysuccinimide. An aliquot of 200 μl of 5 μg/ml of the ligand diluted in 10 mM sodium acetate (pH 4.5) was injected into flow cell-2 of the CM5 chip for immobilization. Next, 135 μl of 1 M ethanolamine (pH 8.2) was then injected to block the remaining active sites. The flow cell-1 without coating with the ligand was used as a control to evaluate nonspecific binding. The binding analyses were performed at flow rate of 30 μl/min at 25° C. To evaluate the binding, the analyte (ranging from 62.5 nM to 1.0 μM for kinetics analysis or 0.5 μM for yes/no binding analysis) was injected into flow cell-1 and -2 and the association of analyte and ligand was recorded respectively by surface plasmon resonance. The signal from the blank channel (flow cell-1) was subtracted from the channel (flow-cell 2) coated with the ligand. Data were analyzed by the BIAcore T200 Evaluation Software. For all samples, a blank injection with buffer alone was subtracted from the resulting reaction surface data. Data were globally fitted to the Lagmuir model for a 1:1 binding.
Surface plasmon resonance (SPR) analysis was utilized to determine the physical interaction and binding affinity between rhCIRP and pattern-recognition receptors and MD2. […] The sensorgrams show association and dissociation of analyte at the indicated concentration passed over to the immobilized ligand on the sensor chip, indicated as analyte/ligand on top of each diagram. […] The region of CIRP that binds to MD2 was determined via the synthesis of 32 oligopeptides (15-mer) covering the entire human CIRP sequence. The oligopeptides were passed over immobilized rhMD2 on the BIAcore instrument, followed by subsequent performance of a series of SPR analyses. Three oligopeptides with high binding affinity were indicated. […] Three oligopeptides, aa 101-115, 106-120 (C22), and 111-125 (C23) bound to rhMD2 with high affinity (FIG. 14 and FIG. 19).

septic mice (CLP) = assay: Mouse CLP severe sepsis survival study; type: in vivo
Experimental: Mice were subjected to CLP and treated immediately after operation with the antibiotic imipenem ([…] BW) and resuscitative fluid. At 2 hours after CLP, mice were administered C23 (8 mg/kg BW) or an equivalent volume of normal saline (vehicle) via the internal jugular vein. Survival was then assessed every 12 hours.

[2] = test system: MLVEC stimulated with rmCIRP; assay: rmCIRP-stimulated mouse lung vascular endothelial cells (MLVEC); type: cell-based; settings: C23 200 ng/ml
Experimental: MLVEC were treated with rmCIRP in the presence of C23 or non-specific oligopeptide P5 (negative control) for 4 hours. Cells were harvested, lysed and the cell lysate analyzed by SDS-PAGE and Western blotting (immunodetection). Referring to FIG. 23A, ICAM-1 expression is abrogated in the presence of 200 ng/ml of the oligopeptide C23.
Similarly, the release of IL-1beta by MLVEC stimulated by rmCIRP was blocked (as determined by ELISA) when 200 ng/ml of the oligopeptide C23 was added to the media, as shown in FIG. 23B. (For FIGS. 23A and 23B: Mean+/−SD, n=3, *P<0.05 vs. groups without C23.)

mice subjected to CLP = assay: Mouse CLP sepsis, markers 24 hours post-CLP; type: in vivo; settings: 8 mg/kg 2 hours after CLP
Experimental: Mice subjected to CLP were treated 2 hours later with the oligopeptide C23 (8 mg/kg) or saline.
In FIGS. 23A through 23C: Mean+/−SD; n=4-8/group; *P<0.05 vs. sham, #P<0.05 vs. vehicle, one-way ANOVA. mRNA amounts are measured by qPCR; protein levels are measured by ELISA.

[3] = test system: LPS-induced TNF-α release, RAW 264.7 cells; assay: Polymyxin B on LPS-induced TNF-α release from RAW 264.7 cells; type: cell-based, murine; settings: PMB 120 U/ml, LPS 10 ng/ml, 8 hours
Experimental: (§1) Murine macrophage-like RAW 264.7 cells were obtained from ATCC (American Type Culture Collection, Manassas, Va.), and were grown in Dulbecco's Modified Eagle's Medium (DMEM, Life Technologies, Grand Island, N.Y.) containing 10% (vol/vol) FBS (heat-inactivated at 56° C. for 30 min), 100 U/ml penicillin, 100 μg/ml streptomycin and 2 mM glutamine. Cells were re-suspended in medium and incubated in 6 or 48-well tissue-culture plates overnight in a humidified incubator (37° C., 5% CO2). In the experiments, cell monolayers were stimulated with or without recombinant CIRP at various indicated concentrations and for various indicated times. The cell-free supernatants were assayed for TNF-α by ELISA or for HMGB1 by western blot analysis.
(§2) To conduct this experiment, rmCIRP (1.5 μg/ml or LPS (10 ng/ml) was treated with polymyxin B (PMB, 120 U/ml) or heated at 80° C. for 30 min before being added to RAW 264.7 cells for 8 hours. *P<0.05 vs. rmCIRP; #P<0.05 vs. LPS.

[4] = test system: rmCIRP-induced TNF-α production, RAW 264.7 cells; assay: Polymyxin B on rmCIRP-induced TNF-α production in RAW 264.7 cells; type: cell-based, murine; settings: PMB 120 U/ml, rmCIRP 1.5 μg/ml, 8 hours
Experimental: as §1, §2

THP-1 cells = assay: TNF-α release from differentiated THP-1 cells stimulated with recombinant proteins; type: cell-based, human; settings: 0.3 μg/ml each protein, 8 h, ELISA
Experimental: As with the murine model, the stimulation of TNF-α, release by rCIRP in a human model was studied. […] These experiments were conducted by incubating differentiated human THP-1 cells with rhCIRP or rmCIRP at the indicated concentrations for 4 h. *P<0.05 vs. no CIRP. Similarly, human PBMC were incubated with the indicated concentrations of rhCIRP for 8 h. *P<0.05 vs. no rhCIRP. Thus, stimulation of cytokine release by CIRP was not attributable to LPS contamination. Furthermore, CIRP-induced cytokine activation was conserved between rodents and humans.
rmCIRP induced TNF-α and HMGB1 release in macrophages (FIGS. 10a, b and c). It was reported that HMGB1 can also stimulate TNF-α release (Andersson, U., et al. High mobility group 1 protein (HMG-1) stimulates proinflammatory cytokine synthesis in human monocytes. J. Exp. Med. 192, 565-570 (2000)). The relationship between CIRP and HMGB1 on stimulating TNF-α release was analyzed by applying respective neutralizing antibodies. […] After 4 h, TNF-α levels in conditioned medium (CM) were assayed by ELISA. Data are mean±s.e.m. from three independent experiments. *P<0.05 vs. rmCIRP+ control IgG. In FIG. 16D, RAW 264.7 cells were pre-incubated with rabbit control IgG or anti-CIRP antibodies at indicated dilutions of 1 mg/ml for 20 min before adding 1.0 μg/ml rmCIRP. After 4 h, TNF-α levels in CM were assayed by ELISA. Data are mean±s.e.m. from three independent experiments. *P<0.05 vs. rmCIRP+ control IgG. THP-1 cells were incubated with 4 μg/ml of anti-CIRP antibodies, anti-HMGB1 antibodies, or non-immunized control IgG for 1 h prior to adding rmCIRP (0.3 μg/ml), rmHMGB1 (0.3 μg/ml), or rmCIRP/rmHMGB1 (0.3 μg/ml, 0.3 μg/ml) for 8 h. *P<0.05 vs. rmCIRP; #P<0.05 vs. rmHMGB1. […] Furthermore, rmCIRP, rmHMGB1, and rmCIRP plus rmHMGB1 induced TNF-α levels of 0.8, 0.6, and 1.6 ng/ml, respectively. […] TNF-α levels in all collected CM were assayed by ELISA. Data are mean±s.e.m. from three or four independent experiments.
Murine macrophage-like RAW 264.7 cells and human monocyte THP-1 cells were obtained from ATCC (Manassas, Va.). […]

TLR4 = TLR4 (Homo sapiens, UniProt O00206); settings: literature; read-out: KD, binding to TLR4; cited from earlier work
Sequence of TLR4 (O00206 24-631 limits assumed, species assumed): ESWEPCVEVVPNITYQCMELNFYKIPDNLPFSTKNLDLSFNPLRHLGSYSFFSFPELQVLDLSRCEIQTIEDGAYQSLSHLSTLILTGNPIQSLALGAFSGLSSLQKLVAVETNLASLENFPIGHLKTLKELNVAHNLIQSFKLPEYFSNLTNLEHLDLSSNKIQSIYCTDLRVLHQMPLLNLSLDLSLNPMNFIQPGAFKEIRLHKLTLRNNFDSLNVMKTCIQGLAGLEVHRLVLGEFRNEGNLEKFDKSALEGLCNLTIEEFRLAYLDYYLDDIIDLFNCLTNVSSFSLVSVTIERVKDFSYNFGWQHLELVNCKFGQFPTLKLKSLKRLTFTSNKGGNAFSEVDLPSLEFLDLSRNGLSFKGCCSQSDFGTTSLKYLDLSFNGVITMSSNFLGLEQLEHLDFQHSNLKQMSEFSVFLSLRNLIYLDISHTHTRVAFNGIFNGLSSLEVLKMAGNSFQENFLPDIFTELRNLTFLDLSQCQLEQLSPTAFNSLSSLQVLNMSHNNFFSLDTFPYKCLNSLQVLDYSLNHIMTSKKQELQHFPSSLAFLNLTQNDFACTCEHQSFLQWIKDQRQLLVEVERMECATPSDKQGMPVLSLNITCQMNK

## GGRGRGRGFSRGGGD (fragment of CIRP) [C22, 15-mer oligopeptide derived from human CIRP]
[1]
  effect on LPS-induced TNF-α release in THP-1 cells (in words): inhibit
rhMD2
  binding affinity of 15-mer oligopeptides to rhMD2 (in words): high affinity

## RGFFRGGRGRGRGFS (fragment of CIRP) [C21, 15-mer oligopeptide derived from human CIRP]
[1]
  effect on LPS-induced TNF-α release in THP-1 cells (in words): does not suppress
rhMD2
  binding affinity of 15-mer oligopeptides to rhMD2 (in words): high affinity

## GRGFSRGGGDRGYGG (fragment of CIRP) [C23, 15-mer oligopeptide derived from human CIRP]
[1]
  effect on LPS-induced TNF-α release in THP-1 cells (in words): inhibit
Septic mice (CLP); 8 mg/kg BW 2 hours after CLP, all vehicle mice died within 48 hours
  survival (Kaplan-Meier, in words): some of C23-treated mice lived longer
Septic mice (CLP); 8 mg/kg BW via internal jugular vein 2 hours after CLP, with imipenem
  average survival time: 44.2 h
[2]; 4 hours, Western blot
  ICAM-1 expression in MLVEC: abrogated
[2]; ELISA
  release of IL-1beta by MLVEC: blocked
rhMD2
  binding affinity of 15-mer oligopeptides to rhMD2 (in words): high affinity; also recorded: highest affinity
Mice subjected to CLP
  serum levels of TNF-α and IL-6: lower
Mice subjected to CLP; 24 hours post-CLP
  expression of E-selectin, ICAM-1, TNF-α and IL-1β in the lungs: significant decrease

## Polymyxin B
[3]
  inhibition of LPS-induced TNF-α release: 84%
[4]
  effect on rmCIRP-induced TNF-α production: did not interfere

B1: rmHMGB1: recombinant HMGB1 produced as in Yang et al. 2004 (protein, UniProt P63158 1-215, looked up)
High mobility group protein B1: MGKGDPKKPRGKMSSYAFFVQTCREEHKKKHPDASVNFSEFSKKCSERWKTMSAKEKGKFEDMAKADKARYEREMKTYIPPKGETKKKFKDPNAPKRPPSAFFLFCSEYRPKIKGEHPGLSIGDVAKKLGEMWNNTAADDKQPYEKKAAKLKEKYEKDIAAYRAKGKPDAAKKGVVKAEKSKKKKEEEDDEEDEEDEEEEEEEEDEDEEEDDDDE
THP-1 cells
  induced TNF-α levels: 0.6 ng/mL

B2: rhMD2: recombinant human MD2 (Glu17-Asn160) with 10-His tag, expressed from E. coli, R&D Systems (protein)
chain: EAQKQYWVCNSSDASISYTYCDKMQYPISINVNPCIELKRSKGLLHIFYIPRRDLKQLYFNLYITVNTMNLPKRKEVICRGSDDDYSFCRALKGETVNTTISFSFKGIKFSKGKYKCVVEAISGSPEEMLFCLEFVILHQPNSNHHHHHHHHHH
TLR4
  Kd: 62.9 nM
